Test results from paper PMC9290008 (ACS Medicinal Chemistry Letters, 2022).

Assay: GSH incorporation experiments
Type: in vitro ADME, human
Details: 10 μM compound, GSH 5 mM, 37 °C, 30 min; for %GSH − HLM: absence of HLM; for % GSH + HLM: presence of HLM

SMILES	%GSH − HLM [%]	% GSH + HLM [%]
Clc1ncc(Cl)c(-n2ccc3ncccc32)n1 [Compound 1]	–	96.0
N#Cc1ccc(Cl)nc1-n1ccc2ncncc21 [Compound 23]	2.8	49.9
Clc1nccc(-n2ccc3ncccc32)n1 [Compound 8]	0.1	53.5

Next, values leading:

%GSH − HLM [%]	% GSH + HLM [%]	SMILES
2.5	99.9	Clc1ncc(Cl)c(-n2ccc3ncncc32)n1 [Compound 20]
0	16.1	Clc1ncc(Cl)c(-c2c[nH]c3ncncc23)n1 [Compound 21]
